From publication PMC10094158, “Discovery of a photoactivatable dimerized STING agonist based on the benzo[b]selenophene scaffold” (Chemical Science, 2023) come the findings set out here.

In assay [1] the target is T1, hSTING^HAQ (Stimulator of interferon genes) (Homo sapiens, UniProt Q86WV6, R71H/G230A/H232R/R293Q).
T1 construct: gene STING1
As to the kind of experiment: thermal shift (DSF), ΔTm. The assay is classed as binding.

In assay [2] the target is T2, hSTING^H232 (Stimulator of interferon genes) (Homo sapiens, UniProt Q86WV6, H232).
T2 construct: gene STING1
T2 sequence (Q86WV6 whole entry, change not shown): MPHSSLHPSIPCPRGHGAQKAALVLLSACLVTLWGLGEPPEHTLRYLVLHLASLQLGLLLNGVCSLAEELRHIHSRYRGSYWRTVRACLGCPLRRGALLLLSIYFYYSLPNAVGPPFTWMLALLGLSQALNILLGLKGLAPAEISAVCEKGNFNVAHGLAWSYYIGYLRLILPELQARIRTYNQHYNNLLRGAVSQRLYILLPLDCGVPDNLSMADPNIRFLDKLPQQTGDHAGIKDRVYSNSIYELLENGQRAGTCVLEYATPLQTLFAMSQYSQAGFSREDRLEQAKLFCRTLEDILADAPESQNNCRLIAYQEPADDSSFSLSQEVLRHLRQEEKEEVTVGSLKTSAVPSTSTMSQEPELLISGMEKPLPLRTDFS
As to the kind of experiment: SPR (KD […]); also ITC (KD […]), DSF and […] Å co-crystal structure. The assay is classed as binding.

T1 sequence (Q86WV6 whole entry R71H/G230A/H232R/R293Q): as the sequence (Q86WV6 whole entry, change not shown) above, with R71H, G230A, H232R, R293Q counted along it

Turning to `COc1cc2[se]c(C(=O)CCC(=O)O)cc2cc1OCCCOc1cc2cc(C(=O)CCC(=O)O)[se]c2cc1OC` [diBSP01], in assay [1], the “thermal shift (DSF), ΔTm” value is 27.0 °C. Also, in assay [2], binding was put at a Kd of 49 nM.
